# Data as given in patent publication US12077759B2, “Compositions and methods for treating pathologic calcification” (Washington University, priority 2021, dated 2024).
# System: Wnt/β-catenin pathway
# Experiment: Treatment of ACLp cells with Wnt agonist SKL2001 (rescue of osteogenesis)
# Format: cell-based, human
# Conditions: SKL2001 10 μM
# Protocol: In short, 5×10^5 ACLp cells were first treated with KIF26B shRNA or scrambled shRNA for 48 hours and selected by Puromycin for another 48 hours. Afterward, 2×10^5 ACLp cells were seeded in a 12-well plate. Next osteogenesis was induced as above but in addition, SKL2001 (10 μM) dissolved in dimethyl sulfoxide (DMSO, Sigma-Aldrich) or DMSO only (vehicle) was added to cells. The medium was changed 3 times a week. After 7 days of osteogenic induction, the protein levels of active and total β-catenin were detected by Western blot as described above. After culture for 28 days, the Alizarin red staining was performed as above. After 28 days of osteogenic induction, RNA was isolated and expression of AXIN2 and WNT16 was measured using standard methods detailed above.
smiles,measurement,setting,value
O=C(NCCCn1ccnc1)c1cc(-c2ccco2)on1 [SKL2001],decrease of active β-catenin protein levels after KIF26B knockdown (Western blot),"ACLp cells transduced with KIF26B shRNA, 7 days of osteogenic induction",significantly attenuated
same,decrease in osteogenesis due to KIF26B loss-of-function (Alizarin red staining),"ACLp cells transduced with KIF26B shRNA, 28 days",reverted
same,AXIN2 mRNA expression,"ACLp cells, 28 days of osteogenic induction, vehicle (DMSO) 1.00±0.02, p<0.001",2.20±0.08
same,WNT16 mRNA expression,"ACLp cells, 28 days of osteogenic induction, vehicle (DMSO) 1.00±0.14, p<0.001",3.06±0.13
